From patent US10414713B2, “Fatty acid compound, preparation method therefor and use therefor” (SHANGHAI INSTITUTE OF MATERIA MEDICA, CHINESE ACADEMY OF …, priority 2016, dated 2019) come the findings set out here.

For the assay, the system named is primary hepatocytes of C57bl/6j mice. As to the kind of experiment: Glucose output in primary hepatocytes of C57bl/6j mice. The class given is cell-based. The following applies: Hepatocyte, 6 hours, mouse primary hepatocytes, corrected by protein concentration, FIG. 3, read-out: gluconeogenesis inhibition (glucose output) relative to the negative control. As for the experimental part:
2. To Investigate the Effect of Compounds on Glucose Output in Primary Hepatocytes of C57bl/6j Mice.
(1) Test purpose: To test whether the fatty acid compounds can inhibit hepatocyte glucose output on primary hepatocytes of C57bl/6j mice.
(2) Experimental principle: Small molecule compounds act on mouse primary hepatocytes, inhibit gluconeogenesis, and then affect the glucose output of cells into the medium. The effect of compounds on gluconeogenesis is evaluated by detecting the glucose concentration in the medium after the treatment of different compounds.
(3) Detection reagent: The glucose detection kit was purchased from Shanghai Mind Bioengineering Co., Ltd.
1) the primary hepatocytes of C57bl/6j mice were isolated and inoculated into a 24-well plate at a density of 300,000 per mL. After grew adhering to the wall for 6 hours, they were replaced on serumfree highsugar medium for 12 hours. Compounds 1 to 30 prepared by the present invention (in 1‰ DMSO, 50 μM) were separately added to treat for 6 hours (1‰ DMSO as a negative control). The medium was gently mixed, 50 μL of supernatant was taken from every well, and glucose concentration was measured by a glucose oxidase assay kit.
2) The medium was discarded. The cells was washed with PBS, spin dried, added 200 μL of 250 mM sodium hydroxide solution. […] The protein concentration was determined using coomassie blue staining. […]

For orientation: inhibition means the share of the control response that was lost under treatment. In the case of `CCC(C)(CCCCCCC=CCCCCCCCC(C)(CC)C(=O)O)C(=O)O` (stereo not shown) [Compound 20], the inhibition at 50 µM is greater than 50%.
